Experiment [1] deals with α-Galactosidase (E. Coli, EC. 3.2.1.22). The experiment in a line: α-Galactosidase enzyme inhibition assay (p-nitrophenyl α-D-galactopyranoside). The experiment is classed as biochemical. Conditions: pH 6.5, room temperature, 15 minutes. On the procedure:
(§1) By using a 96-well microplate, the absorbance (at 405 nm) of liberated p- or o-nitrophenol was measured with a microplate reader (MPR-4Ai, manufactured by Tosoh Corporation).
(§2) The enzymes employed herein [α-glucosidase (Baker's yeast), β-glucosidase (Almonds), α-galactosidase (E. coli), β-galactosidase (E. coli) and β-galactosidase (Bovine Liver)] were all purchased from Sigma.
(§3) The substrates (p- or o-nitrophenylglycoside) of these enzymes were all purchased from Sigma.
3) α-Galactosidase (E. Coli, EC. 3.2.1.22) [described in H. Suzuki, S-C. Li and Y-T. Li, J. Biol. Chem., 245, 781-786 (1970)]
Into each well were introduced an aqueous solution of a sample (1 μl), a buffer (74 μl), a 9.9 mM solution of p-nitrophenyl α-D-galactopyranoside in a buffer (20 μl) and a (50 μg/ml) enzyme solution in the buffer (5 μl) to give a total volume of 100 μl. After incubating the resulting mixture at room temperature (20°-30° C.) for 15 minutes, the reaction was ceased by adding a 0.2M borate buffer solution (pH 9.8, prepared from NaOH and H3 BO3, 100 μl). Then the absorbance (A405) of p-nitrophenol liberated by this enzyme reaction was measured. To give the blank absorbance (Ablank), the sample (1 μl), the substrate (20 μl) and the buffer solution (79 μl) were incubated in the same manner and the 0.2M borate buffer solution (100 μl) was added followed by the measurement of the absorbance. To give the control absorbance ([…]), on the other hand, water (1 μl), the substrate (20 μl), the buffer solution (74 μl) and the enzyme solution (5 μl) were incubated in the same manner and the borate buffer solution (100 μl) was added followed by the measurement of the absorbance. A 0.1M phosphate buffer solution (pH 6.5, prepared from KH2 PO4 and K2 HPO4) was employed as the buffer for the enzyme reaction. The IC50 was determined in the same manner as employed in the case of α-glucosidase.

The target of experiment [2] is T1, β-Galactosidase (E. Coli, EC. 3.2.1.23) (Escherichia coli, UniProt P00722).
T1 construct: purchased Sigma; host or cells: E. coli
Briefly: β-Galactosidase (E. coli) enzyme inhibition assay (o-nitrophenyl β-D-galactopyranoside). The experiment is classed as biochemical. Conditions: pH 7.3, room temperature, 30 minutes; read-out: IC50 (M) β-Galactosidase (E. coli). On the procedure:
as §1, §2, §3
4) β-Galactosidase (E. Coli, EC. 3.2.1.23) [described in G. R. Craven, E. Steers, Jr. and C. B. Anfinsen, J. Biol. Chem., 240, 2468-2477 (1965)]
Into each well were introduced an aqueous solution of a sample (2 μl), a buffer (153 μl), a 20 mM solution of o-nitrophenyl β-D-galactopyranoside in a buffer (25 μl), a 100 mM 2-mercaptoethanol (10 μl) and a (10 μg/ml) enzyme solution in the buffer (10 μl) to give a total volume of 200 μl. After incubating at room temperature (20°-30° C.) for 30 minutes, the absorbance (A405) of o-nitrophenol liberated by this enzyme reaction was measured. To give the blank absorbance (Ablank), the sample (2 μl), the substrate (25 μl), the buffer solution (163 μl) and 2-mercaptoethanol (10 μl) were incubated in the same manner followed by the measurement of the absorbance. To give the control absorbance (Acontrol), on the other hand, water (2 μl), the substrate (25 μl), the buffer solution (153 μl), 2-mercaptoethanol (10 μl) and the enzyme solution (10 μl) were incubated in the same manner followed by the measurement of the absorbance. A 50 mM phosphate buffer solution (pH 7.3, prepared from KH2 PO4 and K2 HPO4, containing 1.3 mM of MgCl2) was employed as the buffer for the enzyme reaction. The IC50 was determined in the same manner as employed in the case of α-glucosidase.

In patent publication US5684026A, “Aminocyclopentane derivative” (priority 1994, dated 1997) one finds IC50 data, which are given here for one molecule.

Bounds are passed on as bounds.

T1 sequence (P00722 2-1024 limits assumed): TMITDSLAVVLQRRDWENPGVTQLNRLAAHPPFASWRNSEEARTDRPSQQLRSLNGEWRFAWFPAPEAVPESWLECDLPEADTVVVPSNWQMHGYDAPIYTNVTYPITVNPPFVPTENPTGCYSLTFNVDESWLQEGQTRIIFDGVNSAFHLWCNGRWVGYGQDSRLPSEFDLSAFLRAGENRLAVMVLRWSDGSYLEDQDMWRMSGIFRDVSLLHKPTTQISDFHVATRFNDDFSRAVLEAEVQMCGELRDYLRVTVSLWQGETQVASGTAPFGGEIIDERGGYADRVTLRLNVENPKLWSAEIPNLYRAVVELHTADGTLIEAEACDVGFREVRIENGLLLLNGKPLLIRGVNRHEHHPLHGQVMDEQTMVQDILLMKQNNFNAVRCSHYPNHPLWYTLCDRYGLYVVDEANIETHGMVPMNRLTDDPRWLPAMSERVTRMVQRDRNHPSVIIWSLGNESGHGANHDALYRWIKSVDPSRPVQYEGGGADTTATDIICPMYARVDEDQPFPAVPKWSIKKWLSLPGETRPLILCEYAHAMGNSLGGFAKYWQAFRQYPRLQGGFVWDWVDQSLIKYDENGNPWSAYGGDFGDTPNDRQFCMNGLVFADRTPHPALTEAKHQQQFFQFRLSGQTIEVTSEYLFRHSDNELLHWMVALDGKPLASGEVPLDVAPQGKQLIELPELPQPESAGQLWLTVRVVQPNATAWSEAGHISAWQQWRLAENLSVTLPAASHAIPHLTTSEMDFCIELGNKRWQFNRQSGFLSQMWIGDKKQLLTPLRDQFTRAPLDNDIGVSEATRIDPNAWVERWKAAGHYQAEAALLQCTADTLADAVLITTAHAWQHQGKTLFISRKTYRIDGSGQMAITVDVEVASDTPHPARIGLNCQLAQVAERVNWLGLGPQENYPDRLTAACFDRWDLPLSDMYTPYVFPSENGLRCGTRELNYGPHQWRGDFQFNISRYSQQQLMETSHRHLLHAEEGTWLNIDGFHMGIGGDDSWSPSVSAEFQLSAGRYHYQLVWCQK

On to `OC[C@@]12OC(Nc3ccccc3)=N[C@@H]1[C@H](O)[C@@H](O)[C@@H]2O` [Compound 1-2L, (1S,5R,6S,7R,8S)-1-hydroxymethyl-3-phenylamino-2-oxa-4-azabicyclo[3.3.0]oct-3-ene-6,7,8-triol], for which the IC50 is more than 300 µM in experiment [1] and more than 0.0003 M in experiment [2].
